# “Also recorded” adds a separate entry of the source.
# Tests used:
# ERβ pY36 = target: T1, ERβ pY36 (Homo sapiens, UniProt Q92731); settings: breast cancer cells; published work (Yuan, 2016); cited from earlier work
# T1 construct: host or cells: MDA-MB-231 (human TNBC cell line)
# TNBC [1] = assay: Pilot biomarker clinical study of S-equol in TNBC (Example 12); type: in vivo, human
# Method: A pilot biomarker clinical study was performed in 20 subjects with documented TNBC to determine the effect of the ERβ agonist S-equol on Ki67 an indicator of tumor cell proliferation. Tumor cell proliferation was measured by immunohistological staining for Ki-67. See, FIG. 18 for the outline of the protocol. Ki-67 is encoded by the gene MKI67 gene and is required to maintain individual mitotic chromosomes dispersed in the cytoplasm following nuclear envelope disassembly. Measuring the fraction of Ki-67-positive cells in a tumor is known to be a reliable parameter for assessing cancer patient prognosis. Subjects with TNBC are known to have very high levels of Ki67.
# Patients enrolled in the study received a history, physical, laboratory assessment, radiological imaging, and diagnostic biopsies. Immunohistochemistry (IHC) of Ki67 (proliferation marker), total ERβ, and pY36-ERβ (phosphorylated ERβ, B7H1 (also known as PDL-1) and BRCA1 (breast cancer 1, early onset) were conducted using core needle biopsy tissue samples prior to treatment. Patients were given oral S-equol 50 mg, twice daily for approximately two weeks (10-21 days) prior to the scheduled oncologic surgeries or start of primary systemic therapy. Tumor samples were obtained from the surgery or the two-week repeat core needle biopsy. Post-treatment IHC evaluation of Ki67, total ERβ, phosphorylated ERβ (pY36) and BRCA1 were obtained. Ki67 reduction is a validated surrogate marker of both short and long term hormonal therapy efficacy in trials of human breast cancer and was compared pre- and post-treatment with S-equol. […] A c-DNA microarray platform was also used to discover downstream transcriptional targets of ERβ resulting from activation by S-equol.
# Women eligible for the study had newly diagnosed, previously untreated, triple negative breast cancer, with an intact primary breast tumor of any size. All stages of the disease were eligible. They took S-equol during the time they underwent standard preoperative evaluation or pre-therapeutic work-up for advanced disease, such as staging procedures or central line placement. If primary surgery was performed, tissue leftover after standard diagnostic evaluation was used for the two-week biomarker assessment. […] See, FIG. 10.
# A standard procedure for acquiring core biopsy with a Bard 14-gauge needle was utilized for determining TNBC prior to enrollment. Whenever possible, the tumor tissues used for IHC analyses were acquired at the same time as the diagnostic core biopsy. The tissue samples were sent for staining of total and pY36 ERβ and Ki67, and analyzed. Testing for ERα, PR, and HER-2 was performed using validated methods. TNBC tumors were defined as less than 5% nuclear staining of carcinoma cells for ERα and PR and either 0, 1, or 2+ staining for HER-2 by IHC. Whole-Genome DASL HT platform from Illumina, which is designed for gene expression profiling with extremely low input of RNA (50 pg), was used to interrogate paired FFPE tissue obtained before and after exposure to S-equol.
# The primary analysis estimated the geometric mean change of the Ki67 expression from baseline to two weeks. This was performed using a one-sample t-test of the pre/post differences in the log-transformed data, and summarized by the 95% confidence interval. […]
# TNBC [2] = assay: Neoadjuvant window trial of S-equol in TNBC patients (Example 15); type: in vivo, human; set-up: Cyclin D1 staining, median decrease: unit not given here
# Method: FIG. 35. Clinical trial with TNBC patients. A neoadjuvant window trial was performed on 39 enrolled patients with TNBC confirmed on diagnostic core needle biopsy. Cohort A (20 patients) received a daily dose of 50 mg BID and Cohort B (19 patients) received a higher dose of 150 mg BID for 10-21 days.
# S-equol is a novel oral Estrogen Receptor (ER) Beta agonist with preclinical data showing suppression of TNBC cellular proliferation. A neoadjuvant window trial was performed on 39 enrolled patients with TNBC confirmed on diagnostic core needle biopsy. Cohort A (20 patients) received a daily dose of 50 mg BID and Cohort B (19 patients) received a higher dose of 150 mg BID for 10-21 days. (FIG. 35.) Paired biopsies were evaluable for 36 patients. Primary outcome was a change from pre- to post-treatment Ki-67 and secondary outcomes were included as correlative biomarkers. […] The average decrease in Ki-67 was 8% (P=0.00206, 95% CI−13.46 to −3.26).
# B16 = B16 tumors in mice with subcutaneous S-equol (Example 6, present tense); type: in vivo, mouse; settings: B16 cells, daily s.c. S-equol 20 or 60 mg/kg per day vs PBS
# Method: Further work in a preclinical animal model supports the notion of using S-equol to treat melanoma. In immunocompromised mouse experiments, using B16, a murine tumor cell line know to be useful to study human melanoma metastasis and solid tumor formation, growth of tumors is suppressed with S-equol treatment compared to control. 0.5×10^6 B16 cells are injected into normal BL mice. When the tumor masses reach 50 to 80 mm^3 (about one week after the inoculation), the mice are given daily subcutaneous injections of S-equol (20 or 60 mg/kg per day) or PBS as a vehicle control. Tumor development is followed by caliper measurements along two orthogonal axes: length (L) and width (W) and volume (V) is estimated by the formula V=[L×(W^2)]/2. Tumors harvested from mice are fixed in 10% neutral-buffered formalin, dehydrated, embedded in paraffin, and sectioned at 3 μm thickness. Representative tumor sections from vehicle control and S-equol-treated mice are tested for Ki-67 expression to assess cell proliferation, and for ERβ pY36. Statistical significance in the experiments is assessed by two-tailed Student's t test. In all assays, p<0.05 is considered statistically significant.
# [3] = of 17 evaluable patients, S-equol 50 mg twice daily 10-21 days
# T1 sequence (Q92731 whole entry): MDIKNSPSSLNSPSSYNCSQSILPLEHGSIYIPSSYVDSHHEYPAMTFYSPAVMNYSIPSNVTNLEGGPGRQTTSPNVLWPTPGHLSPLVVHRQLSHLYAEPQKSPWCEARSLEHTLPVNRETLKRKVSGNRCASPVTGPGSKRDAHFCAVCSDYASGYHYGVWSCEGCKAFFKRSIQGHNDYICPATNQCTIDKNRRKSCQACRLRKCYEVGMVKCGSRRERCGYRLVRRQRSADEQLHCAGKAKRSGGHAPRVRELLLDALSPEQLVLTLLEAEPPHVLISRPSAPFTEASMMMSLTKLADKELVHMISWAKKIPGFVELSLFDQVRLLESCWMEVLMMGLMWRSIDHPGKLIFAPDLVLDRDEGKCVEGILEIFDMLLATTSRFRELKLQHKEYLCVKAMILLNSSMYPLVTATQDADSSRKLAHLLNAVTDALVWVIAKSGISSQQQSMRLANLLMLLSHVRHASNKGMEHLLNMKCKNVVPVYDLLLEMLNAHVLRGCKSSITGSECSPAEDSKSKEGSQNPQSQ
smiles,measurement,setting,value
Oc1ccc([C@H]2COc3cc(O)ccc3C2)cc1 [S-equol],human ERβ phosphorylation at Y36,ERβ pY36,promotes
same,change in Ki67 pre- vs post-treatment (in words),"TNBC [1]; TNBC patients, oral S-equol 50 mg twice daily for 10-21 days",measurable decrease in Ki67; also recorded: measurable decline in Ki67
same,patients with 0-20% reduction in Ki-67,TNBC [1]; [3],7 patients
same,patients with greater than 20% reduction in Ki-67,TNBC [1]; [3],one
same,patients with greater than 30% reduction in Ki-67,TNBC [1]; [3],4 patients
same,patients with no reduction in Ki-67,TNBC [1]; [3],5 patients
same,mean posttreatment Ki-67,"TNBC [2]; 36 evaluable patients, S-equol 50 mg BID or 150 mg BID for 10-21 days, mean pre-treatment Ki-67 68%",59%
same,tolerability,"TNBC [2]; oral, patients with TNBC",well tolerated
same,proliferation as measured by Ki-67 (in words),TNBC [2]; patients with TNBC,inhibition of proliferation
same,change in CD3 or CD8 staining,TNBC [2]; pre- and post-treatment paired tumor samples,no significant change; also recorded: did not significantly change
same,average decrease in Ki-67,"TNBC [2]; pre- to post-treatment, P=0.00206, 95% CI −13.46 to −3.26",8%
same,patients with a Ki-67 decrease of at least 20% from baseline,TNBC [2]; share of the patients,28%
same,"Cyclin D1 staining, median decrease","TNBC [2]; with S-equol exposure, range −27.5-0.0",12.5
same,ER-beta expression by IHC (in words),TNBC [2]; with exposure to S-equol,decreased
same,cyclin D1 staining by IHC (in words),TNBC [2]; with exposure to S-equol,decreased
same,"ER Beta IHC expression, median decrease","TNBC [2]; with exposure to S-equol, range −65.00 to −19.50",45%
same,growth of tumors compared to control,B16,suppressed
